Test results taken from BigSolDB 2.1.

O=C1Cc2ccccc2N1
Conditions | solubility (mole fraction)
in 1,4-dioxane, 287.15 K | 0.276
in 1,4-dioxane, 292.15 K | 0.309
in 1,4-dioxane, 296.15 K | 0.336
in 1,4-dioxane, 300.15 K | 0.363
in 1,4-dioxane, 304.15 K | 0.394
in 1,4-dioxane, 308.65 K | 0.421
in 1,4-dioxane, 311.65 K | 0.448
in 1,4-dioxane, 315.35 K | 0.475
in 1,4-dioxane, 319.05 K | 0.502
in 1,4-dioxane, 323.15 K | 0.529
in 1,4-dioxane, 328.15 K | 0.567
in THF, 293.85 K | 0.0116
in THF, 298.65 K | 0.0133
in THF, 302.95 K | 0.0155
in THF, 307.25 K | 0.0181
in THF, 312.55 K | 0.021
in THF, 317.05 K | 0.0243
in THF, 321.35 K | 0.0276
in THF, 327.35 K | 0.0327
in THF, 333.95 K | 0.0397
in acetone, 288.15 K | 0.0498
in acetone, 294.05 K | 0.0602
in acetone, 299.35 K | 0.0707
in acetone, 304.55 K | 0.0812
in acetone, 309.65 K | 0.0919
in acetone, 314.45 K | 0.102
in acetone, 319.55 K | 0.112
in acetone, 325.55 K | 0.122
in acetone, 328.25 K | 0.127
in acetonitrile, 287.15 K | 0.0508
in acetonitrile, 292.15 K | 0.0628
in acetonitrile, 296.15 K | 0.0748
in acetonitrile, 300.15 K | 0.0869
in acetonitrile, 304.15 K | 0.101
in acetonitrile, 308.65 K | 0.123
in acetonitrile, 311.65 K | 0.146
in acetonitrile, 315.35 K | 0.171
in acetonitrile, 319.05 K | 0.196
in acetonitrile, 323.15 K | 0.227
in acetonitrile, 328.15 K | 0.285
in dichloromethane, 288.15 K | 0.0353
in dichloromethane, 292.15 K | 0.0383
in dichloromethane, 296.15 K | 0.0419
in dichloromethane, 300.15 K | 0.0452
in dichloromethane, 304.15 K | 0.0485
in dichloromethane, 308.65 K | 0.0519
in dichloromethane, 311.65 K | 0.0552
in ethanol, 291.95 K | 0.00842
in ethanol, 297.95 K | 0.0134
in ethanol, 302.95 K | 0.0186
in ethanol, 307.65 K | 0.0253
in ethanol, 312.55 K | 0.0324
in ethanol, 318.05 K | 0.0458
in ethanol, 322.65 K | 0.0568
in ethanol, 327.95 K | 0.0742
in ethanol, 332.65 K | 0.0952
in ethyl acetate, 287.15 K | 0.141
in ethyl acetate, 292.15 K | 0.156
in ethyl acetate, 296.15 K | 0.169
in ethyl acetate, 300.15 K | 0.184
in ethyl acetate, 304.15 K | 0.198
in ethyl acetate, 308.65 K | 0.215
in ethyl acetate, 311.65 K | 0.233
in ethyl acetate, 315.35 K | 0.247
in ethyl acetate, 319.05 K | 0.27
in ethyl acetate, 323.15 K | 0.287
in ethyl acetate, 328.15 K | 0.32
in isopropanol, 291.95 K | 0.00673
in isopropanol, 297.95 K | 0.00919
in isopropanol, 303.05 K | 0.0122
in isopropanol, 308.35 K | 0.0155
in isopropanol, 313.15 K | 0.0192
in isopropanol, 317.45 K | 0.0232
in isopropanol, 322.15 K | 0.0287
in isopropanol, 328.35 K | 0.0355
in isopropanol, 333.35 K | 0.0443
in methanol, 291.95 K | 0.00441
in methanol, 297.95 K | 0.00563
in methanol, 302.95 K | 0.00688
in methanol, 307.65 K | 0.00821
in methanol, 312.55 K | 0.00977
in methanol, 317.45 K | 0.0119
in methanol, 322.15 K | 0.0137
in methanol, 327.35 K | 0.0163
in methanol, 332.35 K | 0.019
in n-butanol, 293.85 K | 0.00297
in n-butanol, 298.65 K | 0.00379
in n-butanol, 302.95 K | 0.00468
in n-butanol, 307.25 K | 0.00546
in n-butanol, 312.55 K | 0.00674
in n-butanol, 317.05 K | 0.00793
in n-butanol, 321.35 K | 0.00952
in n-butanol, 327.35 K | 0.0115
in n-butanol, 333.95 K | 0.0143
in n-propanol, 293.15 K | 0.0387
in n-propanol, 299.35 K | 0.0476
in n-propanol, 303.05 K | 0.0523
in n-propanol, 308.35 K | 0.0599
in n-propanol, 313.15 K | 0.0677
in n-propanol, 317.05 K | 0.0744
in n-propanol, 320.75 K | 0.0814
in n-propanol, 328.35 K | 0.0976
in n-propanol, 333.35 K | 0.109
in toluene, 291.95 K | 0.00318
in toluene, 297.95 K | 0.00526
in toluene, 302.95 K | 0.00796
in toluene, 307.65 K | 0.0121
in toluene, 312.55 K | 0.018
in toluene, 317.45 K | 0.0258
in toluene, 322.15 K | 0.0389
in toluene, 327.35 K | 0.0615
in toluene, 332.05 K | 0.0848
